Experiment [1] deals with T1, recombinant mTOR (Homo sapiens, UniProt P42345). Put plainly: In Vitro mTOR Kinase Assay (Echo), Test (a)(ii) (AlphaScreen). Format: biochemical. Conditions: Echo acoustic dispensing. On the procedure:
(a)(ii) In Vitro mTOR Kinase Assay (Echo)
(§1) The assay used AlphaScreen technology (Gray et al., Analytical Biochemistry, 2003, 313: 234-245) to determine the ability of test compounds to inhibit phosphorylation by recombinant mTOR.
The HEK293 FLAG-tagged mTOR (1362-2549) stable cell line was routinely maintained at 37° C. with 5% CO2 up to a confluency of 70-90% in Dulbecco's modified Eagle's growth medium (DMEM; Invitrogen Limited, Paisley, UK Catalogue No. 41966-029) containing 10% heat-inactivated foetal calf serum (FCS; Sigma, Poole, Dorset, UK, Catalogue No. F0392), 1% L-glutamine (Gibco, Catalogue No. 25030-024) and 2 mg/ml Geneticin (G418 sulfate; Invitrogen Limited, UK Catalogue No. 10131-027). Following expression in the mammalian HEK293 cell line, expressed protein was purified using the FLAG epitope tag using standard purification techniques.
Aliquots ([…]) of each compound dilution were acoustically […] using a Labcyte Echo 550 into a well of a Greiner 384-well low volume (LV) white polystyrene plate (Greiner Bio-one). A […] mixture of recombinant purified mTOR enzyme, 1 μM biotinylated peptide substrate (Biotin-Ahx-[…]NH2; Bachem UK Ltd), ATP (20 μM) and a buffer solution [comprising Tris-HCl pH7.4 buffer (50 mM), EGTA (0.1 mM), bovine serum albumin (0.5 mg/mL), DTT (1.25 mM) and manganese chloride (10 mM)] was incubated at room temperature for […].
These assay solutions were incubated for 2 hours at room temperature.
Each reaction was stopped by the addition of […] of a mixture of EDTA (50 mM), bovine serum albumin (BSA; 0.5 mg/mL) and Tris-HCl pH7.4 buffer (50 mM) containing
(§2) p70 S6 Kinase (T389) 1A5 Monoclonal Antibody (Cell Signalling Technology, Catalogue No. 9206B) and AlphaScreen Streptavidin donor and Protein A acceptor beads (200 ng; Perkin Elmer, Catalogue No. 6760002B and 6760137R respectively) were added and the assay plates were left overnight at room temperature in the dark. The resultant signals arising from laser light excitation at 680 nm were read using a Packard Envision instrument.
The phosphorylated biotinylated peptide that is associated with AlphaScreen Streptavidin donor beads forms a complex with the p70 S6 Kinase (T389) 1A5 Monoclonal Antibody that is associated with Alphascreen Protein A acceptor beads. Upon laser light excitation at 680 nm, the donor bead : acceptor bead complex produces a signal that can be measured. Accordingly, the presence of mTOR kinase activity results in an assay signal. In the presence of an mTOR kinase inhibitor, signal strength is reduced. mTOR enzyme inhibition for a given test compound was expressed as an IC50 value.
For orientation: Bead proximity is the source of the signal in Alpha formats.

The target of experiment [2] is T1, recombinant mTOR. Put plainly: In Vitro mTOR Kinase Assay, Test (a)(i) (AlphaScreen). Format: biochemical. The settings on record: read-out: IC50 versus mTOR kinase. On the procedure:
(a)(i) In Vitro mTOR Kinase Assay
as §1
The HEK293 FLAG-tagged mTOR (1362-2549) stable cell line was routinely maintained at 37° C. with 5% CO2 up to a confluency of 70-90% in Dulbecco's modified Eagle's growth medium (DMEM; Invitrogen Limited, Paisley, UK Catalogue No. 41966-029) containing 10% heat-inactivated foetal calf serum (FCS; Sigma, Poole, Dorset, UK, Catalogue No. F0392), 1% L-glutamine (Gibco, Catalogue No. 25030-024) and 2 mg/ml Geneticin (G418 sulfate; Invitrogen Limited, UK Catalogue No. 10131-027). […]
as §2, with “Each reaction was stopped by the addition of 10 μl of a mixture of EDTA (50 mM), bovine serum albumin (BSA; 0.5 mg/mL) and Tris-HCl pH7.4 buffer (50 mM) containing p70” for “p70”, “for about 20 hours” for “overnight”, “instrument. […]” for “instrument.”
mTOR enzyme inhibition for a given test compound was expressed as an IC50 value.

T1 sequence (P42345 1362-2549): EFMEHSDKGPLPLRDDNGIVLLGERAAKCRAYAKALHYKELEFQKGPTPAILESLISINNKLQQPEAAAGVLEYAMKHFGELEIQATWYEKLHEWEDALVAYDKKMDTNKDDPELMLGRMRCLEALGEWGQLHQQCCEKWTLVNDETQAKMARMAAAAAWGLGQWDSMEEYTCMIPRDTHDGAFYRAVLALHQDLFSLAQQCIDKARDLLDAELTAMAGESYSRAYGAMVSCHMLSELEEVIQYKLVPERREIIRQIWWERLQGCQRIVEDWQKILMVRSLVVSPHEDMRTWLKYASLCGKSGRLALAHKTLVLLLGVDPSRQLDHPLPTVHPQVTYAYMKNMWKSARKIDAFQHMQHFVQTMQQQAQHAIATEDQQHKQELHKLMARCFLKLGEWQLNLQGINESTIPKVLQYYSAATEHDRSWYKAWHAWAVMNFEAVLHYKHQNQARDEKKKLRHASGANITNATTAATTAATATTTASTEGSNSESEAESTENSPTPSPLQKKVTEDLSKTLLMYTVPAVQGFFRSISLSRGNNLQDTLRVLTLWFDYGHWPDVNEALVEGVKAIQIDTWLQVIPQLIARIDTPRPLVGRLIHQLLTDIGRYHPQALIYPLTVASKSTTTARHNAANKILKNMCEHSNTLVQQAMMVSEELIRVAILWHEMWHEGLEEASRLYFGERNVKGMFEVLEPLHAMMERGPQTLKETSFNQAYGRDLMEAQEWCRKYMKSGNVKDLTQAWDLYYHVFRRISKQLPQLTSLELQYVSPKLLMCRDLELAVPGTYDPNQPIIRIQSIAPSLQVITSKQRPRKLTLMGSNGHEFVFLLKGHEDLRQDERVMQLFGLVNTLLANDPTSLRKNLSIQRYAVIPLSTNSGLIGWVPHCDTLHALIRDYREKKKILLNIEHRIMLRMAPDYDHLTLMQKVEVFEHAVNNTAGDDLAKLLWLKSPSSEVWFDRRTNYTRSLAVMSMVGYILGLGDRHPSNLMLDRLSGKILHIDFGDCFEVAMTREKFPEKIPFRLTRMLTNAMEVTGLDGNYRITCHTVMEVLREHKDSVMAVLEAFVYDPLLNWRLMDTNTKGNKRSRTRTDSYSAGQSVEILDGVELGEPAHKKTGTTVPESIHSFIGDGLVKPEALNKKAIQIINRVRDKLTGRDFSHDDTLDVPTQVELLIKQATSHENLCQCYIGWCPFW

One may read the IC50 as the point on the concentration scale where inhibition reaches its midpoint. As to `C[C@H]1COCCN1c1cc(CS(C)(=O)=O)nc(-c2ccc(NC(=S)Nc3ccccc3)cc2)n1` [Example 1b, 1-[4-[4-[(3S)-3-methylmorpholin-4-yl]-6-(methylsulfonylmethyl)pyrimidin-2-yl]phenyl]-3-phenyl-thiourea], the IC50 in experiment [1] was determined as 81.6 nM; in experiment [2], 550 nM.

The values are drawn from patent publication US8138183B2, “Morpholino pyrimidine derivatives used in diseases linked to mTOR kinase and/or PI3K” (AstraZeneca AB, priority 2007, dated 2012).
